Laboratory results from patent publication US20240360114A1 (SIRONAX LTD., priority 2021, published 2024).

Tested on: HT-1080 cells
Assay: HT-1080 cell viability assay (ferroptosis induced by RSL3, Cell Titer-Glo)
Assay type: cell-based
Details: ferroptosis inducer RSL3, 20 hours, ferroptosis inhibitory activity, Table 2
In short: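 Cells seeded overnight, then co-treated with RSL3 and compound (3-fold, 10-point dilution, top 1.1 μM) for 20 hours. Viability by CellTiter-Glo luminescence, normalized to untreated controls; EC50 from sigmoidal non-linear regression.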

In the case of CC[C@@H]1CN(c2ccc(NC[C@H]3CC[C@H](N)CC3)c(C)n2)C[C@H](CC)O1 [Compound 500, N-(((1r,4R)-4-aminocyclohexyl)methyl)-6-((2R,6S)-2,6-diethylmorpholino)-2-methylpyridin-3-amine], the EC50 (Homo sapiens, HT-1080, 20 h) is reported as 0.1 to 100 nM.

COc1cc(N2C[C@@H](C)O[C@@H](C)C2)ncc1NC1CC2(CC(N)C2)C1 (stereo partly drawn) [Compound 501, N^2-(6-((2R,6S)-2,6-dimethylmorpholino)-4-methoxypyridin-3-yl)spiro[3.3]heptane-2,6-diamine] showed an EC50 (Homo sapiens, HT-1080, 20 h) of 1000 to 10000 nM.

Molecule NC[C@@H]1CCC(Nc2ccc(N3CCC(C(F)(F)F)CC3)cc2)[C@@H](N)C1 (stereo partly drawn) [Compound 503, (2S, 4R)-4-(aminomethyl)-N1-(4-(4-(trifluoromethyl)piperidin-1-yl)phenyl)cyclohexane-1,2-dia mine bis(2,2,2-trifluoroacetate)] has an EC50 (Homo sapiens, HT-1080, 20 h) of 0.1 to 100 nM.

For Cc1nc(N2CC(C)OC(C)C2)ccc1NC1CC2CC1CC2N (stereo not shown) [Compound 504, N2-(6-(2,6-dimethylmorpholino)-2-methylpyridin-3-yl)bicyclo[2.2.1]heptane-2,5-diamine], the EC50 (Homo sapiens, HT-1080, 20 h) was 0.1 to 100 nM.

NC1CC2(C1)CC(Nc1ccc(N3CCN(CC(F)(F)F)CC3)cc1)C2 (stereo not shown) [Compound 505, N2-(4-(4-(2,2,2-trifluoroethyl)piperazin-1-yl)phenyl)spiro[3.3]heptane-2,6-diamine] showed an EC50 (Homo sapiens, HT-1080, 20 h) of 0.1 to 100 nM.

In the case of CC(C)(C)OC(=O)N[C@H]1CC[C@H](CNc2ccc(N3CC4CC(C3)O4)c(F)c2)CC1 [Compound 506, tert-butyl ((1r,4r)-4-(((4-(6-oxa-3-azabicyclo[3.1.1]heptan-3-yl)-3-fluorophenyl)amino)methyl)cyclohexyl) carbamate], the EC50 (Homo sapiens, HT-1080, 20 h) is reported as 0.1 to 100 nM.

Work on Cc1nc(N2CCC3(CCOCC3)C2)ccc1NC1CC2(CC(N)C2)C1 (stereo not shown) [Compound 507, N2-(2-methyl-6-(8-oxa-2-azaspiro[4.5]decan-2-yl)pyridin-3-yl)spiro[3.3]heptane-2,6-diamine] yielded an EC50 (Homo sapiens, HT-1080, 20 h) of 100 to 1000 nM.

With Cc1nc(N2CC[C@H]3OCCC[C@@H]3C2)ccc1NC1CC2(CC(N)C2)C1 (stereo partly drawn) [Compound 508, N2-(6-((4aR,8aR)-hexahydro-2H-pyrano [3,2-c]pyridin-6 (5H)-yl)-2-methylpyridin-3-yl)spiro[3. 3]heptane-2,6-diamine] the EC50 (Homo sapiens, HT-1080, 20 h) was 0.1 to 100 nM.

Cc1nc(N2CCC3(CCCCO3)CC2)ccc1NC1CC2(CC(N)C2)C1 (stereo not shown) [Compound 509, N2-(2-methyl-6-(1-oxa-9-azaspiro [5.5]undecan-9-yl)pyridin-3-yl)spiro[3.3]heptane-2,6-diamine] showed an EC50 (Homo sapiens, HT-1080, 20 h) of 0.1 to 100 nM.

Molecule COC1(C(F)(F)F)CCN(c2ccc(NC[C@H]3CC[C@H](N)CC3)c(C)n2)CC1 [Compound 510, N-(((1r,4r)-4-aminocyclohexyl)methyl)-6-(4-methoxy-4-(trifluoromethyl)piperidin-1-yl)-2-methylpyridin-3-amine] has an EC50 (Homo sapiens, HT-1080, 20 h) of 0.1 to 100 nM.

For COc1nc(N2C[C@@H](C)O[C@@H](C)C2)ccc1NC[C@H]1CC[C@H](N)CC1 [Compound 511, N-(((1r,4R)-4-aminocyclohexyl)methyl)-6-((2S,6R)-2,6-dimethylmorpholino)-2-methoxypyridin-3-amine], the EC50 (Homo sapiens, HT-1080, 20 h) was 0.1 to 100 nM.

Work on Cc1nc(N2CC(C)OC(C)C2)ccc1NCC1CC2(CC(N)C2)C1 (stereo not shown) [Compound 512, N-((6-aminospiro [3.3]heptan-2-yl)methyl)-6-(2,6-dimethylmorpholino)-2-methylpyridin-3-amine] yielded an EC50 (Homo sapiens, HT-1080, 20 h) of 0.1 to 100 nM.

With CC1(C)CN(c2ccc(NC[C@H]3CC[C@H](N)CC3)cc2F)CC(C)(C)O1 [Compound 513, N-(((1r,4r)-4-aminocyclohexyl)methyl)-3-fluoro-4-(2,2,6,6-tetramethylmorpholino)aniline] the EC50 (Homo sapiens, HT-1080, 20 h) was 0.1 to 100 nM.

With Cc1nc(N2CC(C)(C)OC(C)(C)C2)ccc1NC[C@H]1CC[C@H](N)CC1 [Compound 514, N-(((1r,4r)-4-aminocyclohexyl)methyl)-2-methyl-6-(2,2,6,6-tetramethylmorpholino)pyridin-3-amine] the EC50 (Homo sapiens, HT-1080, 20 h) was 0.1 to 100 nM.

For Cc1nc(N2CC(C)(C)OC(C)(C)C2)ccc1NC1CC2(CC(N)C2)C1 (stereo not shown) [Compound 515, N2-(2-methyl-6-(2,2,6,6-tetramethylmorpholino)pyridin-3-yl)spiro[3.3]heptane-2,6-diamine], the EC50 (Homo sapiens, HT-1080, 20 h) was 0.1 to 100 nM.

Cc1nc(N2CC(C)OC(C)C2)ccc1NCC12CC3CC(C1)C(N)C(C3)C2 (stereo not shown) [Compound 516A, N-(((1s,4r)-4-aminoadamantan-1-yl)methyl)-6-(2,6-dimethylmorpholino)-2-methylpyridin-3-amine] gave an EC50 (Homo sapiens, HT-1080, 20 h) of 0.1 to 100 nM.

Cc1nc(N2CCOCC2)ccc1NC1C2CC3CC1CC(N)(C3)C2 (stereo not shown) [Compound 517, N4-(2-methyl-6-morpholinopyridin-3-yl)adamantane-1,4-diamine] gave an EC50 (Homo sapiens, HT-1080, 20 h) of 100 to 1000 nM.

In the case of Cc1nc(N2CCOC(C)C2)ccc1NC1C2CC3CC1CC(N)(C3)C2 (stereo not shown) [Compound 518, N4-(2-methyl-6-(2-methylmorpholino)pyridin-3-yl)adamantane-1,4-diamine], the EC50 (Homo sapiens, HT-1080, 20 h) is reported as 0.1 to 100 nM.

Work on Cc1nc(N2CC(C)OC(C)C2)c(F)cc1NC1C2CC3CC1CC(N)(C3)C2 (stereo not shown) [Compound 519, N4-(6-(2,6-dimethylmorpholino)-5-fluoro-2-methylpyridin-3-yl)adamantane-1,4-diamine] yielded an EC50 (Homo sapiens, HT-1080, 20 h) of 0.1 to 100 nM.

Molecule Cc1nc(N2CCOC(C)C2)ccc1NC1C2CC3CC1CC(CN)(C3)C2 (stereo not shown) [Compound 520, N-(5-(aminomethyl)adamantan-2-yl)-2-methyl-6-(2-methylmorpholino)pyridin-3-amine] has an EC50 (Homo sapiens, HT-1080, 20 h) of 0.1 to 100 nM.

Cc1nc(N2CC3COCC3C2)ccc1NC1CC2(CC(N)C2)C1 (stereo not shown) [Compound 521] showed an EC50 (Homo sapiens, HT-1080, 20 h) of 0.1 to 100 nM.

Work on CC1CC(C)CN(c2ccc(NC[C@H]3CC[C@H](N)CC3)cc2)C1 (stereo partly shown) [Compound 522, N-(((1r,4r)-4-aminocyclohexyl)methyl)-4-(3,5-dimethylpiperidin-1-yl)aniline] yielded an EC50 (Homo sapiens, HT-1080, 20 h) of 0.1 to 100 nM.

Cc1nc(N2C3COCC2C3)ccc1NC1CC2(CC(N)C2)C1 (stereo not shown) [Compound 523, N2-(6-(3-oxa-6-azabicyclo[3.1.1]heptan-6-yl)-2-methylpyridin-3-yl)spiro[3.3]heptane-2,6-diamine] gave an EC50 (Homo sapiens, HT-1080, 20 h) of 1000 to 10000 nM.

Cc1nc(N2CC3CC(C2)O3)ccc1NC1CC2(CC(N)C2)C1 (stereo not shown) [Compound 524, N2-(6-(6-oxa-3-azabicyclo[3.1.1]heptan-3-yl)-2-methylpyridin-3-yl)spiro[3.3]heptane-2,6-diamine] showed an EC50 (Homo sapiens, HT-1080, 20 h) of 100 to 1000 nM.

For CC1CN(c2ccc(NC[C@H]3CC[C@H](N)CC3)cc2)CC(C)N1C (stereo partly shown) [Compound 525, N-(((1r,4r)-4-aminocyclohexyl)methyl)-4-(3,4,5-trimethylpiperazin-1-yl)aniline], the EC50 (Homo sapiens, HT-1080, 20 h) was 100 to 1000 nM.

Cc1nc(N2CC(C)OC(C)C2)ccc1NCCCC1CCC(N)CC1 (stereo not shown) [Compound 526, N-(3-((1r,4s)-4-aminocyclohexyl)propyl)-6-(2,6-dimethylmorpholino)-2-methyl pyridin-3-amine] showed an EC50 (Homo sapiens, HT-1080, 20 h) of 0.1 to 100 nM.

COC1CCN(c2ccc(NC3CC4(CC(N)C4)C3)c(C)n2)CC1 (stereo not shown) [Compound 527] was tested, and the EC50 (Homo sapiens, HT-1080, 20 h) was 0.1 to 100 nM.

Cc1nc(N2C3CCC2COC3)ccc1NC1CC2(CC(N)C2)C1 (stereo not shown) [Compound 528, N2-(6-(3-oxa-8-azabicyclo[3.2.1]octan-8-yl)-2-methylpyridin-3-yl)spiro[3.3]heptane-2,6-diamine] showed an EC50 (Homo sapiens, HT-1080, 20 h) of 100 to 1000 nM.

COC(C)(C)C1CCN(c2ccc(NC3CC4(CC(N)C4)C3)c(C)n2)CC1 (stereo not shown) [Compound 529, N2-(6-(4-(2-methoxypropan-2-yl)piperidin-1-yl)-2-methylpyridin-3-yl)spiro[3.3]-heptane-2,6-diamine] gave an EC50 (Homo sapiens, HT-1080, 20 h) of 0.1 to 100 nM.

In the case of Cc1nc(N2CCC3(CC2)COC3)ccc1NC1CC2(CC(N)C2)C1 (stereo not shown) [Compound 530, 2-N-(2-methyl-6-{2-oxa-7-azaspiro[3.5]nonan-7-yl}pyridin-3-yl)spiro[3.3]heptane-2,6-diamine], the EC50 (Homo sapiens, HT-1080, 20 h) is reported as 1000 to 10000 nM.

Work on CCN1C(C)CN(c2ccc(NC[C@H]3CC[C@H](N)CC3)cc2)CC1C (stereo partly shown) [Compound 532, N-(((1r,4r)-4-aminocyclohexyl)methyl)-4-(4-ethyl-3,5-dimethylpiperazin-1-yl)aniline] yielded an EC50 (Homo sapiens, HT-1080, 20 h) of 100 to 1000 nM.

With Cc1nc(N2CCC3(CCCOC3)CC2)ccc1NC1CC2(CC(N)C2)C1 (stereo not shown) [Compound 533, N2-(2-methyl-6-(2-oxa-9-azaspiro [5.5]undecan-9-yl)pyridin-3-yl)spiro[3.3]heptane-2,6-diamine] the EC50 (Homo sapiens, HT-1080, 20 h) was 0.1 to 100 nM.

For Cc1nc(N2CC(C)OC(C)C2)ccc1NC1CCC(CCCN)CC1 (stereo not shown) [Compound 534, N-(4-(3-aminopropyl)cyclohexyl)-6-(2,6-dimethylmorpholino)-2-methylpyridin-3-amine], the EC50 (Homo sapiens, HT-1080, 20 h) was 0.1 to 100 nM.

With CC1CN(c2ccc(NC3CC4(CC(N)C4)C3)cc2F)CC(C)N1CC(F)(F)F (stereo not shown) [Compound 535] the EC50 was 0.1 to 100 nM.

COC1(C)CCN(c2ccc(NC3CC4(CC(N)C4)C3)c(C)n2)CC1 (stereo not shown) [Compound 536, N2-(6-(4-methoxy-4-methylpiperidin-1-yl)-2-methylpyridin-3-yl)spiro[3.3]heptane-2,6-diamine] was tested, and the EC50 (Homo sapiens, HT-1080, 20 h) was 0.1 to 100 nM.

For Cc1nc(N2CCC(N3C[C@@H](C)O[C@@H](C)C3)CC2)ccc1NC1CC2(CC(N)C2)C1 (stereo partly drawn) [Compound 537, N2-(6-(4-((2S,6R)-2,6-dimethylmorpholino)piperidin-1-yl)-2-methylpyridin-3-yl)spiro[3.3]heptane-2,6-diamine], the EC50 (Homo sapiens, HT-1080, 20 h) was 100 to 1000 nM.

For Cc1nc(N2CCOCC2)ccc1NC1C2CC3CC1CC(CN)(C3)C2 (stereo not shown) [Compound 538A, N-((2r,5s)-5-(aminomethyl)adamantan-2-yl)-2-methyl-6-morpholinopyridin-3-amine], the EC50 (Homo sapiens, HT-1080, 20 h) was 0.1 to 100 nM.

Cc1nc(N2C[C@@H](C)N(CC(F)(F)F)[C@@H](C)C2)ccc1NC1C2CC3CC1CC(N)(C3)C2 (stereo partly drawn) [Compound 540, N4-(6-((3R,5S)-3,5-dimethyl-4-(2,2,2-trifluoroethyl)piperazin-1-yl)-2-methylpyridin-3-yl)adamantane-1,4-diamine] gave an EC50 (Homo sapiens, HT-1080, 20 h) of 0.1 to 100 nM.

For Cc1nc(N2C[C@@H](C)N(CC(F)(F)F)[C@@H](C)C2)ccc1NC1CCC(N)C1 (stereo partly drawn) [Compound 541, N1-(6-((3R,5S)-3,5-dimethyl-4-(2,2,2-trifluoroethyl)piperazin-1-yl)-2-methylpyridin-3-yl)cyclopentane-1,3-diamine], the EC50 (Homo sapiens, HT-1080, 20 h) was 0.1 to 100 nM.

Cc1nc(N2C[C@@H](C)N(CC(F)(F)F)[C@@H](C)C2)ccc1NC1CCC(N)CC1 (stereo partly shown) [Compound 542] gave an EC50 (Homo sapiens, HT-1080, 20 h) of 0.1 to 100 nM.
